Patent US8846570B2, “Herbicidal compositions comprising 4-amino-3-chloro-5-fluoro-6-(4-chloro-2-fluoro-3-methoxyphenyl)pyridine-2-carboxylic acid or a derivative thereof and microtubule inhibiting herbicides” (Dow AgroSciences LLC, priority 2012, dated 2014)

How the values were obtained:
Assay in all cases: Pre-emergence soil-applied, greenhouse: visual weed control
Format in all cases: in vivo
[1] = test system: Echinochloa colonum (L.) Link (ECHCO)
Source text: (§1) Seeds or nutlets of the desired test plant species were planted in a soil matrix prepared by mixing a loam soil (e.g., 32 percent silt, 23 percent clay, and 45 percent sand, with a pH of about 6.5 and an organic matter content of about 1.9 percent) and calcareous grit in an 80 to 20 ratio. The soil matrix was contained in plastic pots with a volume of 1 quart and a surface area of 83.6 square centimeters (cm^2).
(§2) Treatments consisted of the benzyl ester of 4-amino-3-chloro-5-fluoro-6-(4-chloro-2-fluoro-3-methoxy-phenyl)pyridine-2-carboxylic acid (compound A) formulated as an SC (suspension concentrate) and various herbicidal components alone and in combination. Forms of compound A were applied on an acid equivalent basis.
(§3) Treatment requirements were calculated based upon the rates being tested, the concentration of active ingredient or acid equivalent in the formulation, and a 12 mL application volume at a rate of 187 L/ha.
(§4) For treatments comprised of formulated compounds, measured amounts of compounds were placed individually in 25 mL glass vials and diluted in a volume of 1.25% (v/v) Agri-Dex® crop oil concentrate (COC) to obtain 12× stock solutions. […] Application solutions were prepared by adding an appropriate amount of each stock solution (e.g., 1 mL) and diluted to the appropriate final concentrations with the addition of 10 mL of an aqueous mixture of 1.25% (v/v) COC so that the final spray solutions contained 1.25% (v/v) COC.
(§5) For treatments comprised of formulated and technical compounds, weighed amounts of the technical materials were placed individually in 25 mL glass vials and dissolved in a volume of 97:3 (v/v) acetone/DMSO to obtain 12× stock solutions, and measured amounts of the formulated compounds were placed individually in 25 mL glass vials and diluted in a volume of 1.5% (v/v) COC or water to obtain 12× stock solutions. […] Application solutions were prepared by adding an appropriate amount of each stock solution (e.g., 1 mL) and diluted to the appropriate final concentrations with the addition of an appropriate amount of an aqueous mixture of 1.5% (v/v) COC so that the final spray solutions contained 1.25% (v/v) COC. As required, additional water and/or 97:3 (v/v) acetone/DMSO was added to individual application solutions so that the final acetone and DMSO concentrations of the application solutions being compared were 8.1% and 0.25%, respectively.
(§6) All stock solutions and applications solutions were visually inspected for compound compatibility prior to application. Spray solutions were applied to the soil with an overhead Mandel track sprayer equipped with a 8002E nozzles calibrated to deliver 187 L/ha over an application area of 0.503 m^2 at a spray height of 18 inches (46 cm) above average pot height. Control pots were sprayed in the same manner with the solvent blank.
(§7) The treated and control pots were placed in a greenhouse and top watered as needed. When required to ensure good germination and healthy plants, a fungicide treatment and/or other chemical or physical treatment was applied. The pots were maintained in a greenhouse with an approximate 14 hr photoperiod which was maintained at about 29° C. during the day and 26° C. during the night. Nutrients (Peters® Excel 15-5-15 5-Ca 2-Mg) were applied in the irrigation solution as needed and water was added on a regular basis. Supplemental lighting was provided with overhead metal halide 1000-Watt lamps as necessary. After approximately 4 weeks, the condition of the test plants as compared with that of the untreated plants was determined visually and scored on a scale of 0 to 100 percent where 0 corresponds to no injury or growth inhibition and 100 corresponds to complete kill.
(§8) Colby's equation was used to determine the herbicidal effects expected from the mixtures (Colby, S. R. 1967. Calculation of the synergistic and antagonistic response of herbicide combinations. Weeds 15:20-22.). […]

[2] = test system: Sesbania exaltata (Raf.) Cory/Rydb. Ex Hill (SEBEX); details: Compound A Benzyl Ester 16 g ae/ha alone
Source text: as §1, §2, §3, §4, §5, §6, §7, §8

[3] = test system: Echinochloa crus-galli (L.) P. Beauv. (ECHCG)
Source text: as §1, §2, §3, §4, §5, §6, §7, §8

[4] = test system: Brachiaria platyphylla (Groseb.) Nash or Urochloa platyphylla (Nash) R.D. Webster (BRAPP)
Source text: as §1, §2, §3, §4, §5, §6, §7, §8

[5] = test system: Setaria faberi Herrm. (SETFA)
Source text: as §1, §2, §3, §4, §5, §6, §7, §8

[6] = test system: Xanthium strumarium L. (XANST); details: 27 DAA
Source text: as §1, §2, §3, §4, §5, §6, §7, §8

[7] = Compound A Benzyl Ester 16 g ae/ha alone
[8] = Compound A Benzyl Ester 32 g ae/ha alone

Compound | Visual Weed Control (%) - 33 DAA ECHCO Obs [1, 7] | Visual Weed Control (%) - 33 DAA ECHCO Obs [1, 8] | Visual Weed Control (%) - 33 DAA SEBEX Obs [2] | Visual Weed Control (%) - 33 DAA ECHCG Obs [3, 7] | Visual Weed Control (%) - 33 DAA ECHCG Obs [3, 8] | Visual Weed Control (%) - 33 DAA BRAPP Obs [4, 7] | Visual Weed Control (%) - 33 DAA BRAPP Obs [4, 8] | Visual Weed Control (%) - 33 DAA SETFA Obs [5, 7] | Visual Weed Control (%) - 33 DAA SETFA Obs [5, 8] | Visual Weed Control (%) Obs ([6]; 140 g ai/ha) | Visual Weed Control (%) Obs ([6]; 280 g ai/ha)
COc1c(Cl)ccc(-c2nc(C(=O)OCc3ccccc3)c(Cl)c(N)c2F)c1F [Compound A Benzyl Ester, benzyl ester of 4-amino-3-chloro-5-fluoro-6-(4-chloro-2-fluoro-3-methoxy-phenyl)pyridine-2-carboxylic acid] | 12% | 3% | 40% | 20% | 33% | 23% | 50% | 13% | 13% | – | –
CSC(=O)c1c(C(F)F)nc(C(F)(F)F)c(C(=O)SC)c1CC(C)C [Dithiopyr, S,S′-dimethyl-2-(difluoromethyl)-4-(2-methylpropyl)-6-(trifluoromethyl)-3,5-pyridinedicarbothioate] | – | – | – | – | – | – | – | – | – | 0% | 17%
